Here are results for seven molecules from patent US20220016243A1, “METHODS FOR TREATMENT OF CANCER WITH AN ANTI-TIGIT ANTAGONIST ANTIBODY” (Genentech, Inc., priority 2020, published 2022).

Like-named read-outs stand apart in the source and are kept apart here.

Data set [1] deals with patients with metastatic bladder. Conditions: 8 of 17 patients at the recommended Phase II dose; prior CPI treatment; 95% CI: 23, 72.2; cited from earlier work.
Data set [2] concerns patients with advanced or metastatic HCC. The following applies: cited from earlier work.
The subject of data set [3] is chemotherapy-naive patients with locally advanced unresectable or metastatic PD-L1-selected NSCLC. The following applies: cutoff 30 Jun. 2019.
The conditions of data set [4]: human, in vivo; cited from earlier work.
Data set [5] in a line: Internal safety review of lung cancer clinical trials (paclitaxel). The class given is in vivo, human. Conditions: patients from Asian countries compared with those from non-Asian countries. Here is the method: Patients of Asian race/ethnicity have a lower starting dose of paclitaxel at 175 mg/m2 IV over 3 hours. […] As used in this study, Asian race/ethnicity refers to a panethnic/racial group that includes diverse populations who either live or have ancestral origins in East Asia, Southeast Asia, or South Asia. The applicability of such term in a particular patient is at the discretion of the treating investigator and should be based on the patient's clinical characteristics and country of origin.

The test system of data set [6] is patients with mUC who had progressed on platinum-based therapy and checkpoint inhibitor therapy. Conditions: cited from earlier work.
For data set [7] the following is noted: cited from earlier work.

With enfortumab vedotin, the “patients who obtained a PR” value in data set [1] was 47%.
On to `CNC(=O)c1cc(Oc2ccc(NC(=O)Nc3ccc(Cl)c(C(F)(F)F)c3)cc2)ccn1` [sorafenib], for which, in data set [2] (Independent Review Facility-assessed per RECIST v1.1), the “median PFS” value is 4.27 months. The “median OS” value in data set [2] (in vivo) is on record as 13.24 months.
Regarding “placebo and atezolizumab: control arm of Study GO40290: placebo in combination with atezolizumab”, the all-grade adverse events in data set [3] (135 safety-evaluable patients, tiragolumab 600 mg every 3 weeks) was determined as 95.6%. In data set [3] (ITT population), the ORR is given as 16.2% and the “investigator-assessed PFS” value was determined as 3.6 months. Besides, in data set [3], the “AEs leading to treatment discontinuation” value is 10.3%, the “Grade ≥3 AEs” value is 44.1%, the “adverse events of special interest” value was 32.4% and the “serious AEs” value is 35.3%.
Regarding `Nc1ccn([C@@H]2O[C@H](CO)[C@@H](O)C2(F)F)c(=O)n1` [gemcitabine], the “most common adverse events” value in data set [4] was “nausea/vomiting, anemia, hepatic transaminitis, neutropenia, increased ALP, proteinuria, fever, hematuria, rash, thrombocytopenia, dyspnea, and peripheral edema”.
For the molecule `CC(=O)O[C@H]1C(=O)[C@@]2(C)[C@H]([C@H](OC(=O)c3ccccc3)[C@]3(O)C[C@H](OC(=O)[C@H](O)[C@@H](NC(=O)c4ccccc4)c4ccccc4)C(C)=C1C3(C)C)[C@]1(OC(C)=O)CO[C@@H]1C[C@@H]2O` [paclitaxel], the “incidence of hematologic toxicities” value in data set [5] is reported as “higher overall incidence of hematologic toxicities”.
Consider sacituzumab govitecan, for which the values for the ORR in data set [6] (35 patients) and in data set [6] (patients with liver metastases) were 29% and 25.0%, respectively.
For the molecule `[NH2][Pt]1([NH2])[O]C(=O)C2(CCC2)C(=O)[O]1` [carboplatin, platinum, diammine[I,I-cyclobutanedicarboxylato(2-)-0,0′]-, (SP-4-2)], the “pH of a 1% solution” value in data set [7] (1% solution) is recorded as 5 to 7. Besides, the “solubility in ethanol, acetone, and dimethylacetamide” value in data set [7] (ethanol, acetone, dimethylacetamide) is recorded as “virtually insoluble”. Also, the solubility in water entry in data set [7] (water) is “approximately 14 mg/mL”.
